Measured values published in patent US20220040158A1, “AZD0328 DOSAGE REGIME FOR TREATING COGNITIVE IMPAIRMENT” (ASTRAZENECA AB, priority 2018, published 2022).
Where two headings read alike, the source gives them in different places.

Tests used:
[1] = single compartment oral dosing PK model for AQW051; parameters: species or system human; settings: model parameter estimate
Text: (§1) In more detail, a single compartment oral dosing model with first order absorption as shown in equation (1) for a single dose at time t=0. This population-level model describes the concentration time dynamics of the study cohort given dose D of the drug. Here t is time, C(t) is drug concentration over time, Cmax is maximum achieved concentration at a particular dose, F is bioavailability, D is dose, Vd is volume of distribution, kα is the absorption time constant, and ke is the elimination time constant.
(§2) From the clinical study documentation, for each dose cohort t1/2, tmax, and Cmax could be established. For example, assuming dose-proportionality, half-life t1/2 was estimated for both drugs as the mean over of t1/2 over the different single-dose cohorts, as described in the study publications. We could then determine a working value for the elimination time constant ke in equation (2): […]
(§3) From equation (1), the time of maximum concentration tmax is then available from (3):
(§4) With dose-proportionality, tmax is independent of dose and is again obtained from the mean over the different single-dose cohorts. The absorption time constant kα is established by identifying the kα which results in a zero error e=0:
(§5) This is accomplished by graphing e(kα) over a dense grid in kα, identifying a region around the zero-crossing in which e(.) is monotonic in k0, and then using the interpolation function to estimate the kα with e(kα)=0. With the assumption of dose proportionality, we estimated the mean of Cmax/D over the single-dose cohorts and defined the constant K
(§6) Then from equation (1) and the definition of Cmax,
(§7) For multiple doses at times τi, we then assume linearity and hav
(§8) All equations were implemented directly in R version 3.2.1 (2015 Jun. 18, see https://cran.r-project.org/).
(§9) Dose and dosing regime selection for AZD0328 is targeted to achieve similar levels of α7 nAChR agonism to those reported to deliver clinical improvement in MCI with AQW051 (Trenkwalder et al., ibid).

α7 nAChR [2] = molecular target: T1, α7 nAChR (Homo sapiens, UniProt P36544); settings: from the literature (Feuerbach et al.); read-out: EC50 as α7 nAChR agonist; cited from earlier work
[3] = geometric mean, cited from earlier work
[4] = system: Parkinson's disease patients; settings: cited from earlier work
[5] = AQW051 single-dose cohort pharmacokinetics (Feuerbach et al, phase I); type: in vivo, human
Text: (§10) We thus set out to use summary cohort-level pharmacokinetic (PK) statistics for AQW051 (Feuerbach et al, ibid) and our own unpublished results for AZD0328 (A Phase I, Single-Centre, Randomized, Double-Blind, Placebo-Controlled, Parallel Group Study to Assess the Safety, Tolerability and Pharmacokinetics of AZD0328 in Healthy Volunteers after Oral Single Ascending Doses, Study Code D0190C00005, Ed. 1, 8 Apr. 2008) to establish a safe an efficacious dose range and regime for AZD0328 in Parkinson's disease patients.
as §2, §9

α7 nAChR [6] = molecular target: T1, α7 nAChR; test: Ki for efficacy used as threshold in PK figures; settings: threshold indicated in FIGS. 3-5
[7] = single compartment oral dosing PK model for AZD0328; parameters: species or system human; settings: model parameter estimate
Text: as §1, §2, §3, §4, §5, §6, §7, §8

rats = settings: oral administration (WO2008/115139); cited from earlier work
α1β1γδ nAChR = α1β1γδ nAChR (Homo sapiens, UniProt P02708+P07510+Q07001); test: selectivity by inhibition of radioligand binding, α1β1γδ nAChR; settings: relative to α7 nAChR
Text: (§11) AZD0328 is ca 20-fold selective to the α1β1γδ nAChR, and 1000-fold selective to other nicotinic receptors and a panel of other targets (as determined by inhibition of radioligand binding).

schizophrenia patients = test: clinical evaluation of cognition in schizophrenia patients; type: in vivo, human; settings: doses up to 0.675 mg
Text: In the case of schizophrenia, it has been widely postulated that direct-acting agonists of various cholinergic receptors including α7 nAChRs, could normalize GABAergic, glutamergic, or dopaminergic function in the dorsolateral prefrontal cortex (dIPFC), dysfunction of which has been consistently associated with cognitive deficits in this condition. […] To date, despite numerous trials, no α7 nAChR agonist has been approved for use in the treatment of schizophrenia.
(§12) In Rhesus monkeys, spatial working memory was enhanced by doses of AZD0328 above 0.001 mg/kg (plasma compound levels of ca 0.2 times the whole cell current IC50).

α7 nAChR [8] = molecular target: T1, α7 nAChR; test: activation of whole cell current at α7 nAChR; type: cell-based
α7 nAChR [9] = molecular target: T1, α7 nAChR; test: α7 nAChR binding (inhibition of radioligand binding)
Text: as §11

[10] = Phase I oral single ascending dose study of AZD0328 in healthy volunteers (safety, tolerability, pharmacokinetics); type: in vivo, human
Text: as §10, §2
Capsules used in the study on which the modelling described above was performed were made by blending AZD0328 tartrate (monotartrate/monohydrate form) with mannitol, povidone and sodium starch glycolate (see Table 5). The blend was the subjected to wet granulation with water as the granulation fluid, then dried before blending with sodium stearyl fumarate. The resultant composition was filled into size 4 hard gelatin capsules (containing gelatin (Ph Eur), titanium dioxide (Ph Eur), and iron oxide black, red and yellow (E172). In embodiments, the compositions for use are capsules according to Table 5.

[11] = system: other nicotinic receptors and a panel of other targets; test: selectivity by inhibition of radioligand binding, other nicotinic receptors and panel; settings: relative to α7 nAChR
Text: as §11

Rhesus monkeys = test: spatial working memory in Rhesus monkeys; type: in vivo, Rhesus monkey
Protocol: as §12

[12] = healthy volunteers, oral single dose 0.025 mg, cohort geometric mean
[13] = healthy volunteers, oral single dose 0.075 mg, cohort geometric mean
[14] = healthy volunteers, oral single dose 0.23 mg, cohort geometric mean
[15] = healthy volunteers, oral single dose 0.68 mg, cohort geometric mean
[16] = healthy volunteers, oral single dose 1.35 mg, cohort geometric mean
[17] = healthy volunteers, oral single dose 2 mg, cohort geometric mean

T1 sequence (P36544 23-502): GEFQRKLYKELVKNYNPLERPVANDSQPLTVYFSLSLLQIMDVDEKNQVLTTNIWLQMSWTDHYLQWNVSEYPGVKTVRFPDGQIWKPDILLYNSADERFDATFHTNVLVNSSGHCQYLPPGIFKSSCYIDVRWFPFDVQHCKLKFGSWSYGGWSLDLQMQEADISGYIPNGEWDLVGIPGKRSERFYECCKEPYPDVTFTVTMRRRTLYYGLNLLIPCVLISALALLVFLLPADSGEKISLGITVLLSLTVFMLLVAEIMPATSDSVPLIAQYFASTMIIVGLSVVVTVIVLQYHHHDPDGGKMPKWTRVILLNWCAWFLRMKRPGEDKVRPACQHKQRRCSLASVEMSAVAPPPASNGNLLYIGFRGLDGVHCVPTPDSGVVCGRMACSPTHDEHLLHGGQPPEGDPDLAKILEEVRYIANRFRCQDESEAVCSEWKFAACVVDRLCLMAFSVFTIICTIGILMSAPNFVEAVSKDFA
α1β1γδ nAChR, sequence (P02708 21-457): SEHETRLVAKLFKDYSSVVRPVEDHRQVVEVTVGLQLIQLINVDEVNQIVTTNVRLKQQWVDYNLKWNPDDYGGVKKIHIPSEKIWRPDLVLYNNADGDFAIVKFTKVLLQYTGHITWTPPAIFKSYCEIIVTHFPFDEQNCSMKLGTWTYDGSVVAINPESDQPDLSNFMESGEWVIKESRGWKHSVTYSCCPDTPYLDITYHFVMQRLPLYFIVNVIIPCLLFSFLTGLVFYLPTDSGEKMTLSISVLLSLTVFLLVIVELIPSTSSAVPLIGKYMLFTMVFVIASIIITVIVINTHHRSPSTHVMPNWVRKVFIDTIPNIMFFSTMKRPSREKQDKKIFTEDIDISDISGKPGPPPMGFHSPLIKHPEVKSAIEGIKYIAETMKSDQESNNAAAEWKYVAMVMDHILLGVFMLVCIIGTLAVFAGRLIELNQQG
α1β1γδ nAChR, sequence (P11230 24-501 partner): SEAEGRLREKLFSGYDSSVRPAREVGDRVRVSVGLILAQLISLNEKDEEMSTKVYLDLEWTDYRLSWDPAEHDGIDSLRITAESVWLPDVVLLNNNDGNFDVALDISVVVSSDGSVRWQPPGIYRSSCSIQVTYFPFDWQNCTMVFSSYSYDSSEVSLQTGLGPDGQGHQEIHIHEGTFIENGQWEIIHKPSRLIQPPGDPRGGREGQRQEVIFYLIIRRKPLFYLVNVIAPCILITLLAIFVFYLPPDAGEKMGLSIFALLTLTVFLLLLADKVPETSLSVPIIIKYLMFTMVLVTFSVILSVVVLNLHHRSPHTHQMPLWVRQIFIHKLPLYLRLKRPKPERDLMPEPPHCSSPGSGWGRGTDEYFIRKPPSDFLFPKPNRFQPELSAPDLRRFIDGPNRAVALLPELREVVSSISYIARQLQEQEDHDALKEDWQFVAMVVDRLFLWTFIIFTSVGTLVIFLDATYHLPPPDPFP
α1β1γδ nAChR, sequence (P07510 23-517): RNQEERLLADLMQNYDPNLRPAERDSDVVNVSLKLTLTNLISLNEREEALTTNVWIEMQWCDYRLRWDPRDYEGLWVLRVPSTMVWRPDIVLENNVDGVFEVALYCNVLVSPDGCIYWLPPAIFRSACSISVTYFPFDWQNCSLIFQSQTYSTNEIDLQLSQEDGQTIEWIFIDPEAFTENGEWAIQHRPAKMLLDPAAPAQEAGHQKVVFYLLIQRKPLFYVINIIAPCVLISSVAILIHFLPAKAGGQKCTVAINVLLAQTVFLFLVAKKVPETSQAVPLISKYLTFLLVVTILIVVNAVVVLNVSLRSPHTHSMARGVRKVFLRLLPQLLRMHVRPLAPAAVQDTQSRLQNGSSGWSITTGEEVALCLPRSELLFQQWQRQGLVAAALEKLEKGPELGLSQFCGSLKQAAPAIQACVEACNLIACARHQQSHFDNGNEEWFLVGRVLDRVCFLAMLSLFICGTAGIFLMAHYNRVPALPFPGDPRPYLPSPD
α1β1γδ nAChR, sequence (Q07001 22-517): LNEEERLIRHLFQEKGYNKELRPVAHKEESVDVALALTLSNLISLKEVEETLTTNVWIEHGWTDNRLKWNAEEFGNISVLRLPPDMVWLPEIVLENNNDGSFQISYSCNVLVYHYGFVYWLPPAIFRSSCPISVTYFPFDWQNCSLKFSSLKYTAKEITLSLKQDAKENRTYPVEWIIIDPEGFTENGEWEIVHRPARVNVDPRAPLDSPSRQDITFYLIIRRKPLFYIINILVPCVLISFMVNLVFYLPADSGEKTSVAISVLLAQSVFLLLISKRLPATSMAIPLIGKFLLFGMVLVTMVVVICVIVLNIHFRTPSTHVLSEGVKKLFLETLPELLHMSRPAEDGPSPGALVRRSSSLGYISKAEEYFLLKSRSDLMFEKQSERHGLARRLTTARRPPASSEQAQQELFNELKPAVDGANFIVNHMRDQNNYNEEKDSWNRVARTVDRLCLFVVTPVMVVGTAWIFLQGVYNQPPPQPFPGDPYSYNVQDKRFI

Cc1ccc(-c2ccc(OC3CN4CCC3CC4)cn2)cc1 (stereo not drawn) [AQW051]
K (equation 7 and 8) [1]: 0.88 ng/mL/mg | ka (absorption time constant) [1]: 0.40 h⁻¹ | ke (elimination time constant) [1]: 0.033 h⁻¹ | EC50 (α7 nAChR [2]): 40 nM | Cmax ([3]; Cohort 1, single dose 0.5 mg): 0.266 ng/mL | tmax ([3]; Cohort 1, single dose 0.5 mg): 8 h | Cmax ([3]; Cohort 2, single dose 2.5 mg): 1.20 ng/mL | tmax ([3]; Cohort 2, single dose 2.5 mg): 8 h | Cmax ([3]; Cohort 3, single dose 7.5 mg): 4.34 ng/mL | t1/2 ([3]; Cohort 3, single dose 7.5 mg): 22.0 h | tmax ([3]; Cohort 3, single dose 7.5 mg): 7.98 h | Cmax ([3]; Cohort 4, single dose 25 mg): 20.6 ng/mL | t1/2 ([3]; Cohort 4, single dose 25 mg): 22.7 h | tmax ([3]; Cohort 4, single dose 25 mg): 8 h | Cmax ([3]; Cohort 5, single dose 75 mg): 47.0 ng/mL | t1/2 ([3]; Cohort 5, single dose 75 mg): 18.8 h | tmax ([3]; Cohort 5, single dose 75 mg): 4.04 h | Cmax ([3]; Cohort 6, single dose 200 mg): 162 ng/mL | t1/2 ([3]; Cohort 6, single dose 200 mg): 20.0 h | tmax ([3]; Cohort 6, single dose 200 mg): 4.77 h | effect size, improvement in MCI ([4]; PD patients, 10 mg once daily, P=0.073): 0.4 | increase in cognitive function ([4]; PD patients, 10 mg): not significantly different from the control group | effect size, improvement in MCI ([4]; PD patients, 50 mg once daily, P=0.024): 0.5 | improvement in cognitive function ([4]; PD patients, 50 mg): significantly different from the placebo cohort | cognitive function ([4]; Trenkwalder et al 2016 study): improvements in cognitive function can be realised | Cmax/Dose ([5]; Cohort 1, single dose 0.5 mg): 0.53 ng/mL/mg | Cmax/Dose ([5]; Cohort 2, single dose 2.5 mg): 0.48 ng/mL/mg | Cmax/Dose ([5]; Cohort 3, single dose 7.5 mg): 0.58 ng/mL/mg | Cmax/Dose ([5]; Cohort 4, single dose 25 mg): 0.82 ng/mL/mg | Cmax/Dose ([5]; Cohort 5, single dose 75 mg): 0.63 ng/mL/mg | Cmax/Dose ([5]; Cohort 6, single dose 200 mg): 0.81 ng/mL/mg | Cmax/Dose ([5]; mean over cohorts): 0.64 ng/mL/mg | t1/2 ([5]; mean over cohorts): 20.9 h | tmax ([5]; mean over cohorts): 6.80 h

c1cnc2c(c1)C[C@@]1(CN3CCC1CC3)O2 [AZD0328, (3R)-spiro[1-azabicyclo[2.2.2]octane-3,2′(3′H)-furo[2,3-b]pyridine]
Ki (α7 nAChR [6]): 5 nM | K (equation 7 and 8) [7]: 32.4 nm/mg | ka (absorption time constant) [7]: 1.57 h⁻¹ | ke (elimination time constant) [7]: 0.11 h⁻¹ | long-term potentiation (rats): significantly improve | operant conditioning (rats): significantly improve | selectivity to the α1β1γδ nAChR (α1β1γδ nAChR): ~20 fold | improvement in cognition (schizophrenia patients): did not show a statistically significant improvement in cognition | EC50 (α7 nAChR [8]; read-out: activation of whole cell current IC50): 2900 nM | Emax (α7 nAChR [8]; read-out: intrinsic activity compared with acetylcholine): 101% | IC50 (α7 nAChR [9]): 3 nM | adverse effects ([10]; clinical studies, single dose 0.68 mg): adverse effects, especially, nausea become apparent | prevalence of adverse events ([10]; clinical studies, single doses from 0.25 mg to 0.50 mg): markedly reduced | Cmax [10, 12]: 0.63 nM | t1/2 [10, 12]: 6.25 h | Cmax [10, 13]: 2.08 nM | t1/2 [10, 13]: 5.94 h | Cmax [10, 14]: 6.37 nM | t1/2 [10, 14]: 6.69 h | Cmax [10, 15]: 15 nM | t1/2 [10, 15]: 5.98 h | Cmax [10, 16]: 31 nM | t1/2 [10, 16]: 6.87 h | Cmax [10, 17]: 43.9 nM | tmax [10, 17]: 2.45 h | half-life ([10]; human, plasma, oral, mean over cohorts): 109 min | tmax ([10]; human, plasma, oral, mean over cohorts, read-out: tmax): 6.21 h | tmax ([10]; human, plasma, healthy volunteers, oral single dose 0.025 mg, cohort geometric mean, read-out: tmax): 1.44 h | tmax ([10]; human, plasma, healthy volunteers, oral single dose 0.075 mg, cohort geometric mean, read-out: tmax): 1.59 h | tmax ([10]; human, plasma, healthy volunteers, oral single dose 0.23 mg, cohort geometric mean, read-out: tmax): 1.38 h | tmax ([10]; human, plasma, healthy volunteers, oral single dose 0.68 mg, cohort geometric mean, read-out: tmax): 2.08 h | tmax ([10]; human, plasma, healthy volunteers, oral single dose 1.35 mg, cohort geometric mean, read-out: tmax): 2.95 h | Cmax/Dose ([10]; mean over cohorts): 24.6 nM/mg | Cmax/Dose ([10]; oral single dose 0.025 mg): 25.2 nM/mg | Cmax/Dose ([10]; oral single dose 0.075 mg): 27.7 nM/mg | Cmax/Dose ([10]; oral single dose 0.23 mg): 27.7 nM/mg | Cmax/Dose ([10]; oral single dose 0.68 mg): 22.1 nM/mg | Cmax/Dose ([10]; oral single dose 1.35 mg): 22.9 nM/mg | Cmax/Dose ([10]; oral single dose 2 mg): 21.94 nM/mg | selectivity to other nicotinic receptors and a panel of other targets [11]: 1000 fold | doses enhancing spatial working memory (Rhesus monkeys): above 0.001 mg/kg
